Data: US20040152785A1, “Novel crystal of n-hydroxy-2 (s)-methyl-5-ethoxymethoxy-4(s)-[n-(4-phenoxyphenylcarbonyl)amino] pentanamide, process for their production and medicines containing the crystals as the active ingredient” (priority 2000, published 2004)

Key:
[1] = Stability test: preservation of crystal powder, DSC caloric transition (ΔH) and X-ray diffraction; type: physicochemical
Method: Weighing out over approximately 50 mg of type-A crystal powder, it was preserved under the condition of
1) 40° C., 75% RH (relative humidity), unsealed for a month,
2) 40° C., sealed tightly for 6 months.
The type-A crystal preserved under above conditions and another type-A crystal which was preserved at 5° C. were subjected to measurement of differential scanning calorimetry (DSC) and caloric transition (ΔH) per 1 g was calculated from endothermic peak chart (see FIGS. 14-16)
ΔH=peak area/sample weight

[2] = Oral absorption test: capsule formulations given orally to fed beagles, concentration in plasma; type: in vivo; conditions: beagle, 50 mg/kg
Method: The compound of the present invention (2 g), DK ester SS (Daiichi Kogyo Seiyaku) and lactose (2.9 g) were weighed and the mixture was mixed slightly in a mortar and the mixture was filtered through 60 mesh strainer twice to give pharmaceutical powder. The pharmaceutical powder was filled in No.0 gelatin capsule 250 mg/cap each. By this method, capsule formulations containing type-A and type-C crystal were prepared respectively.
A beagle was fed with solid food (240 g) and after 30 minutes above prepared capsules were administered in a stomach using sonde for oral administration and tap water (20 ml) was administered with sonde for oral administration.
After administration, 15 minutes, 30 minutes, 1 hour, 2 hours and 3 hours taken a blood of 1 ml from cephalic vein using heparin dealt syringe. The taken sample was disposed under 12000 rpm for 2 minutes and plasma was separated and the concentration of the compound in plasma (μg/ml) was measured.
The dose given to the beagle was 50 mg/kg and 4 beagles for type-A crystal and 3 beagles for type-C crystal.

matrix metalloproteinase = conditions: as disclosed in WO 99/19296; cited from earlier work

## CCOCOC[C@H](C[C@H](C)C(=O)NO)NC(=O)c1ccc(Oc2ccccc2)cc1 [Type-A crystal, N-hydroxy-2(S)-methyl-5-ethoxymethoxy-4(S)-[N-(4-phenoxyphenylcarbonyl)amino]pentanamide]
[1]; 1 month, 40° C.-75% RH, unsealed
  ΔH (calorie variation of endothermic peak, absolute value): 14.80 J/g
[1]; 6 months, 40° C., sealed tightly
  ΔH (calorie variation of endothermic peak, absolute value): 13.41 J/g
[1]; 40° C.-75% RH a month and 40° C. 6 months, DSC and X-ray diffraction
  crystal stability (crystal transition on preservation): stable crystal
[1]; initial (type-A crystal preserved at 5° C.)
  ΔH (calorie variation of endothermic peak, absolute value): 13.40 J/g
[2]
  concentration in plasma, comparison of crystals: higher concentration in plasma than type-C crystal
[2]; dog, plasma, po, AUC (area under the blood concentration-time curve), average value, sampling up to 3 hours
  AUC: 5100 ng·h/mL
[2]; dog, plasma, po, plasma, read-out: Cmax (maximum drug concentration), average value
  Cmax: 3600 ng/mL

## CCOCOC[C@H](C[C@H](C)C(=O)NO)NC(=O)c1ccc(Oc2ccccc2)cc1 [compound (I), N-hydroxy-2(S)-methyl-5-ethoxymethoxy-4(S)-[N-(4-phenoxyphenylcarbonyl)amino]pentanamide]
Matrix metalloproteinase
  inhibitory activity against matrix metalloproteinase (MMP): has an inhibitory activity against matrix metalloproteinase

## CCOCOC[C@H](C[C@H](C)C(=O)NO)NC(=O)c1ccc(Oc2ccccc2)cc1 [Type-C crystal, N-hydroxy-2(S)-methyl-5-ethoxymethoxy-4(S)-[N-(4-phenoxyphenylcarbonyl)amino]pentanamide, reference compound]
[2]; plasma
  Cmax (maximum drug concentration), average value: 2000 ng/mL
[2]; plasma, sampling up to 3 hours
  AUC (area under the blood concentration-time curve), average value: 3500 ng·h/mL
